Measured values published in the supplement of paper PMC11061612.

Tests used:
Test in all cases: Bliss excess, mean over the matrix (fraction); higher = more synergy
[1] = system: MOLP-8 (Plasma Cell Myeloma)
Summary of the method: (§1)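 Bliss excess equals the observed combination effect minus the expected value EA + EB − EA·EB, where EA and EB are the effects of each agent alone. Combination Emax is the second-highest inhibition within the matrix. Inhibition was scaled from CellTiter-Glo 2.0 luminescence, with 0 set by vehicle wells and 1 by blank wells, after 72 hours of two-drug dosing of cells plated in 1536-well plates.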

[2] = system: NCI-H1876 (Small Cell Lung Carcinoma)
Summary of the method: as §1

[3] = system: C-33-A (Cervical Carcinoma)
Summary of the method: as §1

NCI-H2373 (Mesothelioma) = system: NCI-H2373 (Mesothelioma)
Summary of the method: as §1

[4] = system: MONO-MAC-6 (Acute Myeloid Leukemia)
Summary of the method: as §1

[5] = system: MDA-MB-415 (Breast Carcinoma)
Summary of the method: as §1

ES6 (Ewing's Sarcoma) = system: ES6 (Ewing's Sarcoma)
Summary of the method: as §1

[6] = system: COR-L88 (Small Cell Lung Carcinoma)
Summary of the method: as §1

[7] = system: MOLT-13 (T-Lymphoblastic Leukemia)
Summary of the method: as §1

[8] = system: CPC-N (Small Cell Lung Carcinoma)
Summary of the method: as §1

[9] = system: OVCAR-3 (Ovarian Carcinoma)
Summary of the method: as §1

[10] = system: DBTRG-05MG (Glioblastoma)
Summary of the method: as §1

[11] = system: RCC-JW (Kidney Carcinoma)
Summary of the method: as §1

[12] = system: P32-ISH (Burkitt's Lymphoma)
Summary of the method: as §1

[13] = system: NCI-H3118 (Head and Neck Carcinoma)
Summary of the method: as §1

[14] = system: SUP-M2 (T-Cell Non-Hodgkin's Lymphoma)
Summary of the method: as §1

[15] = system: SiHa (Cervical Carcinoma)
Summary of the method: as §1

[16] = system: LS-1034 (Colorectal Carcinoma)
Summary of the method: as §1

[17] = system: ZR-75-30 (Breast Carcinoma)
Summary of the method: as §1

[18] = system: MS-1 (Small Cell Lung Carcinoma)
Summary of the method: as §1

CN(C)CCCOc1ccc(-c2ccc3ncc4c(c3c2)n(C2CCOCC2)c(=O)n4C)cn1 [AZD0156] + CCN(CCO)CCCOc1ccc2c(Nc3cc(CC(=O)Nc4cccc(F)c4)[nH]n3)ncnc2c1 [AZD2811] (first compound max 1 µM, 7x7, partner max 1 µM)
Bliss excess [1]: -0.0308 | Bliss excess [2]: -0.0557 | Bliss excess [3]: -0.0142 | Bliss excess (NCI-H2373 (Mesothelioma)): -0.0048 | Bliss excess [4]: 0.053 | Bliss excess [5]: -0.0087 | Bliss excess (ES6 (Ewing's Sarcoma)): -0.0766 | Bliss excess [6]: -0.0279 | Bliss excess [7]: 0.0392 | Bliss excess [8]: 0.0049 | Bliss excess [9]: -0.01 | Bliss excess [10]: -0.0453 | Bliss excess [11]: -0.0243 | Bliss excess [12]: -0.0042 | Bliss excess [13]: -0.0316 | Bliss excess [14]: -0.0286 | Bliss excess [15]: -0.0083 | Bliss excess [16]: -0.0261 | Bliss excess [17]: -0.0415 | Bliss excess [18]: 0.0331

NC1(C(=O)N[C@@H](CCO)c2ccc(Cl)cc2)CCN(c2ncnc3[nH]ccc23)CC1 [Capivasertib] + COc1nnc2ccc(N3CCC(c4ccc(OCCN5CCN(C)C(=O)[C@H]5C)cc4)CC3)nn12 [AZD5153] (first compound max 10 µM, 7x7, partner max 1 µM)
Bliss excess [1]: 0.0092 | Bliss excess [2]: 0.0774 | Bliss excess [3]: 0.0321 | Bliss excess (NCI-H2373 (Mesothelioma)): 0.0349 | Bliss excess [4]: -0.003 | Bliss excess [5]: 0.0467 | Bliss excess (ES6 (Ewing's Sarcoma)): 0.0103 | Bliss excess [6]: 0.0516 | Bliss excess [7]: -0.0111 | Bliss excess [8]: -0.0348 | Bliss excess [9]: 0.0189 | Bliss excess [10]: -0.0239 | Bliss excess [11]: 0.0516 | Bliss excess [12]: 0.119 | Bliss excess [13]: -0.0144 | Bliss excess [14]: -0.0322 | Bliss excess [15]: 0.006 | Bliss excess [16]: 0.0201 | Bliss excess [17]: -0.034 | Bliss excess [18]: -0.0737

COc1cccc(OCCCN)c1-c1cc(Nc2cnc(C#N)cn2)n[nH]1 [Prexasertib] + CCc1c2c(nc3ccc(O)cc13)-c1cc3c(c(=O)n1C2)COC(=O)[C@]3(O)CC [SN-38] (first compound max 1 µM, 7x7, partner max 0.3 µM)
Bliss excess [1]: -0.082 | Bliss excess [2]: 0.0067 | Bliss excess [3]: 0.0583 | Bliss excess (NCI-H2373 (Mesothelioma)): 0.0224 | Bliss excess [4]: 0.0092 | Bliss excess [5]: 0.106 | Bliss excess (ES6 (Ewing's Sarcoma)): 0.0156 | Bliss excess [6]: -0.0204 | Bliss excess [7]: -0.0112 | Bliss excess [8]: 0.0633 | Bliss excess [9]: 0.141 | Bliss excess [10]: -0.0558 | Bliss excess [11]: -0.0065 | Bliss excess [12]: -0.0201 | Bliss excess [13]: 0.0162 | Bliss excess [14]: -0.0099 | Bliss excess [15]: 0.0357 | Bliss excess [16]: 0.0888 | Bliss excess [17]: -0.0408 | Bliss excess [18]: -0.0051

C=CCn1c(=O)c2cnc(Nc3ccc(N4CCN(C)CC4)cc3)nc2n1-c1cccc(C(C)(C)O)n1 [AZD1775] + O=C(c1cc(Cc2n[nH]c(=O)c3ccccc23)ccc1F)N1CCN(C(=O)C2CC2)CC1 [Olaparib] (first compound max 1 µM, partner max 10 µM)
Bliss excess [1]: -0.0294 | Bliss excess [2]: 0.0311 | Bliss excess [3]: 0.0051 | Bliss excess (NCI-H2373 (Mesothelioma)): -0.013 | Bliss excess [4]: 0.0004 | Bliss excess [5]: -0.0482 | Bliss excess (ES6 (Ewing's Sarcoma)): 0.0465 | Bliss excess [6]: -0.0925 | Bliss excess [7]: 0.021 | Bliss excess [8]: 0.0183 | Bliss excess [9]: 0.0351 | Bliss excess [10]: -0.0747 | Bliss excess [11]: -0.0005 | Bliss excess [12]: -0.0323 | Bliss excess [13]: -0.0301 | Bliss excess [14]: 0.0276 | Bliss excess [15]: -0.0444 | Bliss excess [16]: 0.0299 | Bliss excess [17]: -0.0461 | Bliss excess [18]: -0.0094

C[C@@H](c1ccc2nccn2c1)n1nnc2ncc(-c3cnn(C)c3)nc21 [Savolitinib] + CC1(C)CCC(CN2CCN(c3ccc(C(=O)NS(=O)(=O)c4ccc(NCC5CCOCC5)c([N+](=O)[O-])c4)c(Oc4cnc5[nH]ccc5c4)c3)CC2)=C(c2ccc(Cl)cc2)C1 [Venetoclax] (first compound max 1 µM, 7x7, partner max 1 µM)
Bliss excess [1]: -0.0194 | Bliss excess [2]: -0.0486 | Bliss excess [3]: -0.0466 | Bliss excess (NCI-H2373 (Mesothelioma)): -0.0512 | Bliss excess [4]: 0.0005 | Bliss excess [5]: -0.0258 | Bliss excess (ES6 (Ewing's Sarcoma)): -0.0344 | Bliss excess [6]: -0.021 | Bliss excess [7]: -0.0181 | Bliss excess [8]: -0.0454 | Bliss excess [9]: -0.0399 | Bliss excess [10]: -0.0572 | Bliss excess [11]: -0.0343 | Bliss excess [12]: -0.0188 | Bliss excess [13]: -0.0398 | Bliss excess [14]: -0.0238 | Bliss excess [15]: -0.0536 | Bliss excess [16]: -0.0465 | Bliss excess [17]: -0.0361 | Bliss excess [18]: -0.0098

CN(CCO)CC[C@H](CSc1ccccc1)Nc1ccc(S(=O)(=O)NC(=O)c2ccc(N3CCC([C@@H](O)c4ccccc4-c4ccc(Cl)cc4)CC3)cc2)cc1S(=O)(=O)C(F)(F)F [AZD4320] + C[C@@H]1COCCN1C2=NC(=NC(=C2)C3(CC3)[S@](=N)(=O)C)C4=C5C=CNC5=NC=C4 [AZD6738] (first compound max 1 µM, 7x7, partner max 10 µM)
Bliss excess [1]: 0.0086 | Bliss excess [2]: 0.0189 | Bliss excess [3]: -0.0158 | Bliss excess (NCI-H2373 (Mesothelioma)): -0.0303 | Bliss excess [4]: 0.0003 | Bliss excess [5]: -0.0749 | Bliss excess (ES6 (Ewing's Sarcoma)): 0.015 | Bliss excess [6]: 0.0079 | Bliss excess [7]: -0.0057 | Bliss excess [8]: 0.0146 | Bliss excess [9]: -0.0231 | Bliss excess [10]: -0.0221 | Bliss excess [11]: -0.0862 | Bliss excess [12]: -0.0092 | Bliss excess [13]: 0.0076 | Bliss excess [14]: -0.0128 | Bliss excess [15]: -0.0492 | Bliss excess [16]: -0.037 | Bliss excess [17]: -0.0601 | Bliss excess [18]: -0.0085

CC1(C)CCC(CN2CCN(c3ccc(C(=O)NS(=O)(=O)c4ccc(NCC5CCOCC5)c([N+](=O)[O-])c4)c(Oc4cnc5[nH]ccc5c4)c3)CC2)=C(c2ccc(Cl)cc2)C1 [Venetoclax] + CN(C)CCCOc1ccc(-c2ccc3ncc4c(c3c2)n(C2CCOCC2)c(=O)n4C)cn1 [AZD0156] (first compound max 1 µM, 7x7, partner max 1 µM)
Bliss excess [1]: 0.0203 | Bliss excess [2]: 0.0501 | Bliss excess [3]: -0.002 | Bliss excess (NCI-H2373 (Mesothelioma)): -0.0564 | Bliss excess [4]: 0.0233 | Bliss excess [5]: -0.0869 | Bliss excess (ES6 (Ewing's Sarcoma)): -0.0201 | Bliss excess [6]: -0.0237 | Bliss excess [7]: 0.0928 | Bliss excess [8]: -0.0013 | Bliss excess [9]: -0.0303 | Bliss excess [10]: -0.008 | Bliss excess [11]: 0.0087 | Bliss excess [12]: -0.0083 | Bliss excess [13]: 0.005 | Bliss excess [14]: 0.0191 | Bliss excess [15]: -0.0419 | Bliss excess [16]: -0.052 | Bliss excess [17]: -0.0422 | Bliss excess [18]: 0.0128
